“Also recorded” adds a separate entry of the source.
Legend:
[1] = tested on: motor neurons in lumbar spinal cord of mSOD1 G93A ALS mice; experiment: Nissl staining of motor neurons in lumbar spinal cord of mSOD1 G93A ALS mice; assay type: in vivo, mouse; conditions: NAS treatment vs saline vehicle
Procedure: Nissl staining was performed in mSOD1G93A ALS mice and wild type littermates. Serial lumbar spinal cords were sectioned at 18 μm. Continuous 10 sections per mouse were subjected to Nissl staining. Stained motor neurons were counted in the ventral horns of all sections.

[2] = tested on: cerebral ischemia; conditions: NAS administration; Zhou et al. 2014; cited from earlier work
[3] = tested on: WT mice; experiment: Body weight of WT mice under NAS; assay type: in vivo, mouse; conditions: NAS 7.5, 15, 30, 45 mg/kg, daily IP injection started at 6 weeks
[4] = tested on: mSOD1 G93A ALS transgenic mice; experiment: mSOD1 G93A ALS mice: disease onset (rotarod), survival, body weight; assay type: in vivo, mouse
Procedure: Motor strength and coordination were evaluated using a rotarod. Mice were evaluated at both 15 and 5 rpm rotarod speeds. […] Mortality was defined as the age at death or when the mouse was unable to right itself within 30 second. Body weight was monitored weekly.
To determine whether NAS could be used therapeutically in these subjects, NAS was administered at 15 mg/kg/day by daily IP injection initiated at 6 weeks of age. […] ALS disease onset was defined as failure to pass the rotarod task at 15 rpm. […] Thus NAS administration also prevents motor neuron loss in mSOD1 G93A ALS mice.

[5] = tested on: neonatal H-I brain injury (P8 mice, unilateral carotid ligation and 60 min hypoxia); experiment: Neonatal hypoxia-ischemia mouse model, H&E staining and brain area loss; assay type: in vivo
Procedure: For histological analyses, after various time points after H-I brain injury, mice were anesthetized with IP injection of 100 mg/kg pentobarbital and then perfused through the left ventricle with PBS. […] The sections corresponding to image 205 up to caudal hippocampus region of Allen mouse brain atlas were directly mounted on SuperFrost Plus® microscope slides. H&E staining was performed on the brain at 7 days post H-I injury comprising of right unilateral carotid ligation and 60 min hypoxia. Brain sections of 50 μm thickness were stained with hematoxylin and eosin (all reagents from Fisher Scientific, Santa Clara, Calif.), dehydrated in graded ethanol solutions, cleared with xylene, examined under light microscope, and subsequently scanned with Epsom V500 photo scanner for measurements. The cross-sectional unaffected and affected areas of the hippocampus, and cortex were measured with NIH imageJ software. A total of 5 coronal slices through the same hippocampus regions were inspected for tissue loss for each animal. The total cross-sectional area in each brain region was calculated in all sections assessed, and the percentage of area loss in the lesioned hemisphere versus the unlesioned hemisphere was determined for each animal. The person performing the measurements was blinded to the study groups. Images of H & E stained sections were quantified using ImageJ software package to measure hemispheric area contralateral and ipsilateral to the H-I brain injury in order to calculate the amount of tissue lost on the ipsilateral hemisphere. The loss of brain tissue ipsilateral to the H-I injury was calculated as a percentage of the non-injured contralateral hemisphere.

[6] = tested on: neonatal H-I brain injury (P8 mice, unilateral carotid ligation and 45 min hypoxia); experiment: Neonatal hypoxia-ischemia mouse model, Fluoro-Jade B staining and histological score; assay type: in vivo; conditions: melatonin 5 mg/kg IP once daily, 48 hr after H-I
Procedure: FJB staining was performed at 48 hr post H-I injury of UCL followed by 45 min hypoxia. Fluoro-Jade is an anionic fluorochrome capable of selectively staining degenerating neurons in brain slices. Coronal sections of 16 μm thickness were stained with FJB using the method adapted from Schmued and colleagues.^41 Briefly, tissues mounted on glass slides were sequentially placed in 100% ethanol for 3 min, 70% ethanol for 1 min and deionized water for 1 min. Sections were oxidized for 15 min using 0.06% KMnO4 solution followed by 3 brief rinses in PBS. Slides were then immersed in a 0.001% solution of Fluoro-Jade (Histochem, Jefferson, A R) in 0.1% acetic acid for 30 min, rinsed with PBS, dried for 20 min at 45° C., cleared with xylene and cover slips applied using DPX medium. FJB stained sections were examined under a microscope independently by 2 investigators blinded to the treatment group. […] The total scores for the hippocampus and cortex were compared in melatonin treated and vehicle group.

[7] = tested on: melatonin receptor 1A (MT1); conditions: melatonin 10 mg/kg, 30 min prior to H-I; 48 hr post H-I
Procedure: A model of hypoxia-ischemia in newborn mice pups based on modification of Rice-Vannucci model of unilateral carotid ligation (UCL) followed by hypoxia was used.^40 C57/BL6 wild type and MT1 knockout (KO) mice litters of postnatal day 8 (P8) pups were anesthetized with 2.5% isofluorane and balanced room air, and the right common carotid artery permanently ligated. Time to anesthesia and completion of surgery was timed with a stopwatch to limit the procedure to less than 3 min. Following recovery from anesthesia after 15 min, the pups were placed in hypoxia chamber through which 8% oxygen was delivered at 6 liters per min for 60 min for histology, western blot and immunostaining and 45 mins for FJB staining. Normothermia was maintained by placing the pups in an incubator at 34° C. throughout the experiment except during hypoxia when the temperature was increased to 36° C. to counteract the cooling effect of the 8% 02 gas flow. […]
The lysate was cleared by centrifugation at 19,720×g for 10 min at 4° C., and the supernatant was analyzed by Western blotting.^20 Following right unilateral carotid ligation (UCL), C57/BL6 P8 pups were subjected to 60 min of hypoxia. […] The resulting supernatants were analyzed by Western blotting.^20, 44 Protein concentration was measured by the Bradford method.

[8] = tested on: neonatal hypoxic-ischemic brain injury; conditions: melatonin 15 mg/kg; Carloni et al.; cited from earlier work
[9] = tested on: humans; conditions: cited from earlier work
[10] = NAS 15 mg/kg/day, daily IP injection initiated at 6 weeks of age
[11] = melatonin 10 mg/kg IP once daily, first dose 30 min before H-I, 60 min hypoxia, 7 days after H-I, H&E

| SMILES | loss of motor neurons in lumbar spinal cord (Nissl staining) [1] | lesion size [2] | neurological score [2] | neuronal cell death [2] | body weight in WT mice [3] | loss of body weight during pathogenesis in mSOD1 G93A mice ([4]; NAS 15 mg/kg, daily IP injection started at 6 weeks) | ALS disease onset (failure to pass the rotarod task at 15 rpm) [4, 10] | survival / mortality [4, 10] | hippocampal tissue (area) loss in the brain ipsilateral to carotid ligation [5, 11] [%] | percentage brain tissue loss in the brain hemisphere ipsilateral to carotid ligation compared to the uninjured contralateral hemisphere [5, 11] [%] | reduction in hippocampus damage ([5]; melatonin 10 mg/kg, hippocampus) [%] | reduction in brain damage ([5]; melatonin 10 mg/kg, whole hemisphere) [%] | score of FJB positive cells in the cortex [6] | score of FJB positive cells in the hippocampus [6] | MT1 expression in brains of H-I pups (western blot) [7] | reduction in brain damage [8] [%] | side effects in humans ([9]; humans) | safety profile in human newborns ([9]; oxidative stress conditions in human newborns: asphyxia, sepsis, respiratory distress syndrome) |
| --- | --- | --- | --- | --- | --- | --- | --- | --- | --- | --- | --- | --- | --- | --- | --- | --- | --- | --- |
| CC(=O)NCCc1c[nH]c2ccc(O)cc12 [NAS, N-acetylserotonin] | ameliorate the loss of motor neurons | diminish lesion size | improve neurological score | attenuate neuronal cell death | no effect on body weight | prevents the loss of body weight | delayed disease onset; also recorded: delays ALS disease onset | extending survival | – | – | – | – | – | – | – | – | – | – |
| COc1ccc2[nH]cc(CCNC(C)=O)c2c1 [melatonin, N-acetyl-5-methoxytryptamine] | – | – | – | – | – | – | – | – | 28.6 | 9.7 | 57 | 60 | significantly higher score (representing worse damage) in vehicle treated pups compared with melatonin treated pups | significantly higher score (representing worse damage) in vehicle treated pups compared with melatonin treated pups | significantly ameliorated MT1 loss | 64 | minimal | good safety profile with no significant complications |
